What is called IC50 is the concentration at which inhibition is half-maximal.

A value given as a limit tells only on which side of the number the result lay.

The source of these data is article PMC6723352, “Exploring Structure-Activity Relationship in Tacrine-Squaramide Derivatives as Potent Cholinesterase Inhibitors” (Biomolecules, 2019).

The target in series [1] is human BChE (hBChE), human plasmatic butyrylcholinesterase (Homo sapiens, UniProt P06276). As to the kind of experiment: hBChE inhibition, modified Ellman's method. The series is classed as biochemical. To be noted: mean of at least three experiments; read-out: IC50 hBChE. As to the method:
Three series of tacrine-squaramide homodimers were tested for their inhibitory potential against human AChE (hAChE) and human BChE (hBChE) enzymes using modified spectrophotometric method of Ellman et al.. THA, 6-Cl-THA and 7-MEOTA were used as reference compounds.
(§1) Human plasmatic butyrylcholinesterase (BChE; EC 3.1.1.8) and recombinant acetylcholinesterase (AChE; 3.1.1.7) were prepared at the Department of Toxicology and Military Pharmacy. 5,5′-dithiobis(2-nitrobenzoic acid) (Ellman’s reagent, DTNB), phosphate buffer (PB, pH 7.4), acetylthiocholine (ATC) and butyrylthiocholine (BTC), were purchased from Sigma-Aldrich, Prague, Czech Republic. For measuring purposes – polystyrene Nunc 96-well microplates with flat bottom shape (ThermoFisher Scientific, USA) were utilized.
(§2) All the assays were carried out in 0.1 M KH2PO4/K2HPO4 buffer, pH 7.4. Enzyme solutions were prepared at 2.0 units/mL in 2 mL aliquots. The assay medium (100 µL) consisted of 40 µL of 0.1 M phosphate buffer (pH 7.4), 20 µL of 0.01 M DTNB, 10 µL of the enzyme, and 20 µL of 0.01 M substrate (ATC/BTC iodide solution).
(§3) Tested compounds were preincubated for 5 min. The reaction was started by immediate addition of 20 µL of the substrate. The activity was determined by measuring the increase in absorbance at 412 for AChE/BChE at 37 °C at 2 min intervals - using a Multi-mode microplate reader Synergy 2 (Winooski, VT, USA). Each concentration was assayed in triplicate. Software GraphPad Prizm 5 (San Diego, CA, USA) was used for the statistical data evaluation.
For orientation: In Ellman's method for cholinesterases, released thiocholine reacts with DTNB.

A short description of another series: in vitro. To be noted: human. How it is done:
The human origin cell line HepG2 (ATCC, Mannassas, VA, USA) isolated from liver hepatocellular carcinoma was used to evaluate cytotoxicity of tested compounds. The cells were cultivated in Dublecco’s modified Eagle’s medium (DMEM; Biosera, Nuaille, France) supplemented with 10% fetal bovine serum (Biosera) and 1% penicillin-streptomycin antibiotic solution (Sigma-Aldrich, St. Louis, MO, USA), incubated at 37 °C in a CO2 incubator (Binder CO2 incubator BC 160, Tuttlingen, Germany) and routinely passaged by trypsinization at 75–85% confluence.
The final concentration of DMSO was less than 0.25% per well.
After 24-h incubation, the medium containing serially diluted substances was aspirated from each well and replaced by 100 µL of fresh medium containing MTT (0.5 mg/mL). Plates were subsequently incubated at 37 °C in CO2 incubator for 45 min. The medium containing MTT was then aspirated and formazan dissolved in 100 μL of DMSO. The optical density of each well was measured using Synergy 2 Multi-Mode Microplate Reader (BioTek Instruments, Inc., Winooski, VT, USA) at 570 nm. The cell viability was expressed as the percentage of untreated control. Each experiment was performed in triplicate and repeated three independent times.
The IC50 values were expressed as a mean ± standard error of the mean (SEM).

The target of series [2] is T1, human AChE (hAChE), recombinant acetylcholinesterase (Homo sapiens, UniProt P22303).
T1 construct: made in house
T1 sequence (P22303 32-614): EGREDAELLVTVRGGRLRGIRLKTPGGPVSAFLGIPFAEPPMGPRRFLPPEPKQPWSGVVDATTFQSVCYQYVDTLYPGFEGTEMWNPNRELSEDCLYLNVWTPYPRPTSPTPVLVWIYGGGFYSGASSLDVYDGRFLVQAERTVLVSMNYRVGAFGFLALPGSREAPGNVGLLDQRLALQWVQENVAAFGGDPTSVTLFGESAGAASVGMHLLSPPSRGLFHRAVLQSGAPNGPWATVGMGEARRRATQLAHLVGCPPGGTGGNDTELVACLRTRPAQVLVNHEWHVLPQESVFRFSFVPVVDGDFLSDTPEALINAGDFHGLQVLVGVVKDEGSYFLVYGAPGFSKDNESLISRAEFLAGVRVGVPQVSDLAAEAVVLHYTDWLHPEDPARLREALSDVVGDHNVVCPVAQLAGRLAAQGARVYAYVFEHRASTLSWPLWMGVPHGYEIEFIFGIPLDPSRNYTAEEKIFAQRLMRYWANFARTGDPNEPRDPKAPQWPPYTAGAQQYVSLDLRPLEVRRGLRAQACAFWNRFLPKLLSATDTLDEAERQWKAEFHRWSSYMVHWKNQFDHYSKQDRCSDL
Kind of series: hAChE inhibition, modified Ellman's method. The format is biochemical. Conditions: for SI (selectivity index for hAChE): ratio IC50(hBChE)/IC50(hAChE). How it is done:
Three series of tacrine-squaramide homodimers were tested for their inhibitory potential against human AChE (hAChE) and human BChE (hBChE) enzymes using modified spectrophotometric method of Ellman et al.. THA, 6-Cl-THA and 7-MEOTA were used as reference compounds. […].
as §1, §2, §3

For series [3] the following is noted: for Pe: PAMPA, PBS pH 7.4; for CNS (+/−) predicted BBB permeation: class from Pe. The text has this: An important feature for drugs targeting the brain is their ability to cross the BBB. The parallel artificial membrane permeability assay (PAMPA) is a high-throughput screening tool applicable for prediction of passive transport across BBB [57]. […] These include mainly (i) the different composition of the human phospholipid bilayer may cause deviation in predicted permeability, (ii) omitting the absorption of compounds that are actively transported by influx transporters and pumped-out by various efflux mechanisms with the glycoprotein P at the forefront or (iii) transport through the paracellular route which is mostly exploited by small […] molecules. Even considering these drawbacks, PAMPA-BBB is conceived as very simple but powerful tool for BBB prediction.
PAMPA (the parallel artificial membrane permeability assay) is a high-throughput screening tool applicable for prediction of the passive transport of potential drugs across the blood-brain barrier (BBB). In this study, it has been used as a non-cell-based in vitro assay carried out in a coated 96-well membrane filter. The filter membrane of the donor plate was coated with PBL (Polar Brain Lipid, Avanti, USA) in dodecane (4 µl of 20 mg/mL PBL in dodecane) and the acceptor well was filled with 300 µl of phosphate buffer saline, (PBS pH 7.4; VA). The tested compounds were dissolved first in DMSO and then diluted with PBS pH 7.4 to reach the final concentrations 50–500 µM in the donor well. […] In principle, test compound diffuse from the donor well through the polar brain lipid membrane (area = 0.28 cm^2) to the acceptor well. The concentration of the tested compound in both donor and the acceptor wells were assessed after 3, 4, 5 and 6 h of incubation in quadruplicate using the UV plate reader Synergy HT (Biotek, USA) at the maximum absorption wavelength of each compound (n = 3). Besides that, the solution of theoretical compound concentration, simulating the equilibrium state, established if the membrane was ideally permeable was prepared and assessed as well.

Chain of human BChE (hBChE), human plasmatic butyrylcholinesterase (P06276 29-602): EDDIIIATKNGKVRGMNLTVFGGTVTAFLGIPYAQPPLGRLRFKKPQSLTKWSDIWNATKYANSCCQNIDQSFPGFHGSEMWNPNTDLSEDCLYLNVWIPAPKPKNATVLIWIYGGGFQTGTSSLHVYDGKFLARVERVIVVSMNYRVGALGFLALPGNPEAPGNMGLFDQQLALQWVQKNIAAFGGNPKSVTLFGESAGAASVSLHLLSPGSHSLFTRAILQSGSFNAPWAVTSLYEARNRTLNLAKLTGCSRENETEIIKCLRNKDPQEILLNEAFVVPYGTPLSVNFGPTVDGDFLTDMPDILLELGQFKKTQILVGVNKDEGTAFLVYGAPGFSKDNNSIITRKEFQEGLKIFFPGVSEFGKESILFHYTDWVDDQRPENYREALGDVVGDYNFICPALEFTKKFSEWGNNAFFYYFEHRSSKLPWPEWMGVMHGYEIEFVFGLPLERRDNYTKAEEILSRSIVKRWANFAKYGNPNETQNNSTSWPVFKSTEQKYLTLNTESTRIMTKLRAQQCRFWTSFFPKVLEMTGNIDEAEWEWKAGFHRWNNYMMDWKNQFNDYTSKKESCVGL

For `O=c1c(NCCNc2c3c(nc4cc(Cl)ccc24)CCCC3)c(NCCNc2c3c(nc4cc(Cl)ccc24)CCCC3)c1=O` [Compound 4a, Bis({2-[(6-chloro-1,2,3,4-tetrahydroacridin-9-yl)amino]ethyl}amino)cyclobut-3-ene-1,2-dione], the IC50 in series [1] came out at 0.15 µM. Besides, in the series “in vitro”, the 50% inhibitory concentration (IC50) at 24 h is more than 128 µM. In addition, in series [2], the IC50 is 0.0042 µM and the “SI (selectivity index for hAChE)” value is on record as 36.
Regarding `O=c1c(NCCCCCCCNc2c3c(nc4cc(Cl)ccc24)CCCC3)c(NCCCCCCCNc2c3c(nc4cc(Cl)ccc24)CCCC3)c1=O` [Compound 4f, Bis({7-[(6-chloro-1,2,3,4-tetrahydroacridin-9-yl)amino]heptyl}amino)cyclobut-3-ene-1,2-dione], the half-maximal inhibitory concentration (IC50) came to 0.45 µM in series [1] and 0.016 µM in series [2]. Also, the IC50 at 24 h in the series “in vitro” was more than 64 µM. The “SI (selectivity index for hAChE)” value in series [2] was 28.
With `O=c1c(NCCCCCCCNc2c3c(nc4ccccc24)CCCC3)c(NCCCCCCCNc2c3c(nc4ccccc24)CCCC3)c1=O` [Compound 3f, Bis({7-[(1,2,3,4-tetrahydroacridin-9-yl)amino]heptyl}amino)cyclobut-3-ene-1,2-dione], the IC50 in series [1] and in series [2] was 0.032 µM each time. Besides, the half-inhibitory concentration (IC50) at 24 h in the series “in vitro” stood at 23 µM. In addition, the “SI (selectivity index for hAChE)” value in series [2] was 1.
`Nc1c2c(nc3ccccc13)CCCC2` [THA, 9-amino-1,2,3,4-tetrahydroacridine, reference compound]: in series [3], the Pe turned out to be 6 ×10⁻⁶ cm/s and the “CNS (+/−) predicted BBB permeation” value is on record as “CNS + (CNS +: high BBB permeation predicted with Pe (10^−6 cm·s^−1) > 4.0)”.
In the case of `O=c1c(NCCCCCNc2c3c(nc4ccccc24)CCCC3)c(NCCCCCNc2c3c(nc4ccccc24)CCCC3)c1=O` [Compound 3d, Bis({5-[(1,2,3,4-tetrahydroacridin-9-yl)amino]pentyl}amino)cyclobut-3-ene-1,2-dione], in series [1], the IC50 is 0.069 µM. For the same compound, the half-maximal inhibitory concentration (IC50) at 24 h in “in vitro” worked out at 69 µM. Also, in series [2], the IC50 is 0.0081 µM and the “SI (selectivity index for hAChE)” value was determined as 8.5.
Turning to `COc1ccc2nc3c(c(NCCCCCCCNc4c(NCCCCCCCNc5c6c(nc7ccc(OC)cc57)CCCC6)c(=O)c4=O)c2c1)CCCC3` [Compound 5f, Bis({7-[(7-methoxy-1,2,3,4-tetrahydroacridin-9-yl)amino]heptyl}amino)cyclobut-3-ene-1,2-dione], in series [1], the IC50 was determined as 1.3 µM. The IC50 at 24 h in the series “in vitro” amounted to 9 µM. Also, in series [2], the IC50 came out at 0.17 µM and the “SI (selectivity index for hAChE)” value is on record as 7.6.
Regarding `O=c1c(NCCCCCCCCNc2c3c(nc4ccccc24)CCCC3)c(NCCCCCCCCNc2c3c(nc4ccccc24)CCCC3)c1=O` [Compound 3g, Bis({8-[(1,2,3,4-tetrahydroacridin-9-yl)amino]octyl}amino)cyclobut-3-ene-1,2-dione], the IC50 in series [1] was determined as 0.05 µM; in series [2] it was 0.072 µM. In the series “in vitro”, the IC50 at 24 h turned out to be 6.6 µM. In addition, the “SI (selectivity index for hAChE)” value in series [2] amounted to 0.7.
The like results for `O=c1c(NCCCCCCCCNc2c3c(nc4cc(Cl)ccc24)CCCC3)c(NCCCCCCCCNc2c3c(nc4cc(Cl)ccc24)CCCC3)c1=O` [Compound 4g, Bis({8-[(6-chloro-1,2,3,4-tetrahydroacridin-9-yl)amino]octyl}amino)cyclobut-3-ene-1,2-dione] were, in that order, more than 100 µM, 0.01 µM, more than 64 µM and “˃10,000”.
As to `CNC(=C[N+](=O)[O-])NCCSCc1ccc(CN(C)C)o1` [ranitidine, reference compound], in series [3], the Pe was 0 ×10⁻⁶ cm/s and the “CNS (+/−) predicted BBB permeation” value was “CNS − (CNS −: low BBB permeation predicted with Pe (10^−6 cm·s^−1) < 2.0)”.
For `CC(C)Cc1ccc(C(C)C(=O)O)cc1` (stereo not drawn) [ibuprofen, reference compound], the Pe in series [3] came to 12 ×10⁻⁶ cm/s.
On to `COc1ccc2nc3c(c(NCCCCCCCCNc4c(NCCCCCCCCNc5c6c(nc7ccc(OC)cc57)CCCC6)c(=O)c4=O)c2c1)CCCC3` [Compound 5g, Bis({8-[(7-methoxy-1,2,3,4-tetrahydroacridin-9-yl)amino]octyl}amino)cyclobut-3-ene-1,2-dione], for which, in series [1], the IC50 is 2.9 µM. In addition, in “in vitro”, the IC50 at 24 h was found to be 3.5 µM. For the same compound, in series [2], the IC50 is 0.49 µM and the “SI (selectivity index for hAChE)” value is reported as 5.9.
In the case of `COc1ccc2c3c1O[C@H]1C[C@@H](O)C=C[C@@]31CCN(C)C2` [Galantamine, galantamine, reference compound], in “in vitro”, the IC50 at 24 h was 4200 µM.
For the compound `NS(=O)(=O)c1cc2c(cc1Cl)N=CNS2(=O)=O` [chlorothiazide, reference compound], in series [3], the Pe came to 0.3 ×10⁻⁶ cm/s and the “CNS (+/−) predicted BBB permeation” value was “CNS − (CNS −: low BBB permeation predicted with Pe (10^−6 cm·s^−1) < 2.0)”.
As to `O=c1c(NCCCCNc2c3c(nc4ccccc24)CCCC3)c(NCCCCNc2c3c(nc4ccccc24)CCCC3)c1=O` [Compound 3c, Bis({4-[(1,2,3,4-tetrahydroacridin-9-yl)amino]butyl}amino)cyclobut-3-ene-1,2-dione], the IC50 in series [1] was determined as 0.075 µM. For the same compound, the IC50 at 24 h in the series “in vitro” is 150 µM. In addition, in series [2], the IC50 was 0.0055 µM and the “SI (selectivity index for hAChE)” value amounted to 14.
For the compound `COc1ccc2nc3c(c(NCCCCNc4c(NCCCCNc5c6c(nc7ccc(OC)cc57)CCCC6)c(=O)c4=O)c2c1)CCCC3` [Compound 5c, Bis({4-[(7-methoxy-1,2,3,4-tetrahydroacridin-9-yl)amino]butyl}amino)cyclobut-3-ene-1,2-dione], the IC50 worked out at 4.7 µM in series [1] and 4.5 µM in series [2]. Further, in “in vitro”, the IC50 at 24 h was 190 µM.
Take `COc1ccc2nc3c(c(NCCCNc4c(NCCCNc5c6c(nc7ccc(OC)cc57)CCCC6)c(=O)c4=O)c2c1)CCCC3` [Compound 5b, Bis({3-[(7-methoxy-1,2,3,4-tetrahydroacridin-9-yl)amino]propyl}amino)cyclobut-3-ene-1,2-dione]: the IC50 in series [1] was 8.9 µM. For the same compound, the IC50 at 24 h in “in vitro” was more than 64 µM. Moreover, in series [2], the IC50 worked out at 1.1 µM and the “SI (selectivity index for hAChE)” value came out at 8.1.
`Nc1c2c(nc3cc(Cl)ccc13)CCCC2` [Compound 6-Cl-THA, 6-chlorotacrine, reference compound]: the IC50 at 24 h in “in vitro” was 43 µM.
Regarding `CCN(C)C(=O)Oc1cccc([C@H](C)N(C)C)c1` [Rivastigmine, rivastigmine, reference compound], the IC50 at 24 h in “in vitro” is 3400 µM.
Turning to `COc1ccc2nc3c(c(N)c2c1)CCCC3` [Compound 7-MEOTA, 7-methoxytacrine, reference compound], the IC50 at 24 h in “in vitro” is 44 µM.
